Reference: patent publication US20130202681A1 (priority 2012, published 2013)
Where two headings read alike, the source gives them in different places.

What was measured:
[1] = in vivo; cited from earlier work
[2] = mouse, in vivo; cited from earlier work
[3] = liver, water control = 0%
[4] = test system: Mycobacterium tuberculosis; conditions: 10 millimolar

SMILES: N[C@@H](CCC(=O)N[C@@H](CS)C(=O)NCC(=O)O)C(=O)O [Plain glutathione, glutathione]
- absorption after oral ingestion [1]: not absorbed
- decrease of incidence or size of hepatic nodules or tumors [2]: no benefit
- toxin removal ([3]; intravenous): 70%
- toxin removal ([3]; oral): 10%

SMILES: CC(=O)N[C@@H](CS)C(=O)O [NAC, N-acetyl cysteine]
- CFU/ml reduced to [4]: 8,000 CFU/ml
